The target of one data set is Syk (Homo sapiens, UniProt P43405). Put plainly: Syk enzyme inhibition (FRET). The note with it: Table 4a1. The format is biochemical. On the procedure: (§1) The enzyme inhibitory activities of compounds disclosed herein are determined by FRET using synthetic peptides labelled with both donor and acceptor fluorophores (Z-LYTE, Invitrogen Ltd., Paisley, UK).
(§2) The relevant enzyme (3000 ng/mL or 2000 ng/mL respectively, 2.5 μL) is incubated with the test compound (either 4 μg/mL, 0.4 μg/mL, 0.04 μg/mL, or 0.004 μg/mL, 2.5 μL each) for 2 hr at RT. The FRET peptides (8 μM, 2.5 μL), and appropriate ATP solutions (2.5 μL, 800 μM for c-Src, and 60 μM ATP for Syk) are then added to the enzymes/compound mixtures and incubated for 1 hr. Development reagent (protease, 5 μL) is added for 1 hr prior to detection in a fluorescence microplate reader (Varioskan® Flash, ThermoFisher Scientific).
(§3) In all cases, the site-specific protease cleaves non-phosphorylated peptide only and eliminates the FRET signal. Phosphorylation levels of each reaction are calculated using the ratio of coumarin emission (donor) over fluorescein emission (acceptor), for which high ratios indicate high phosphorylation and low ratios indicate low phosphorylation levels.

The target of another data set is GSK3α (Homo sapiens, UniProt P49840). Put plainly: GSK 3α enzyme inhibition (FRET), Method 1. The class given is biochemical. The conditions noted are these: Table 4a1. On the procedure: as §1
The following two assay variants are used for determination of GSK 3a inhibition.
The inhibitory activities of compounds of the invention against the GSK 3a enzyme isoform (Invitrogen), are evaluated by determining the level of activation/phosphorylation of the target peptide. The GSK3-α protein (500 ng/mL, 2.5 μL) is mixed with the test compound (2.5 μL at either 4 μg/mL, 0.4 μg/mL, 0.04 μg/mL, or 0.004 μg/mL) for 2 hr at RT. The FRET peptide (8 μM, 2.5 μL), which is a phosphorylation target for GSK3α, and ATP (40 μM, 2.5 μL) are then added to the enzyme/compound mixture and the resulting mixture incubated for 1 hr. Development reagent (protease, 5 μL) is added for 1 hr prior to detection in a fluorescence microplate reader (Varioskan® Flash, ThermoFisher Scientific).
as §3

Data set [1] deals with TNFα release, d-U937 cells. Put plainly: LPS-induced TNFα release in d-U937 cells. The format is cell-based. The note with it: Homo sapiens, dU937; relative to 10 μg/mL BIRB796; Table 4c1; read-out: LPS Induced Release of Cytokine in d-U937 Cells, TNFα REC50. On the procedure:
(§4) (a) LPS-Induced TNFα/IL-8 Release in d-U937Cells
U937 cells, a human monocytic cell line, are differentiated into macrophage-type cells by incubation with PMA (100 ng/mL) for 48 to 72 hr. Cells are pre-incubated with final concentrations of test compound for 2 hr and are then stimulated with LPS (0.1 μg/mL; from E. Coli: 0111:B4, Sigma) for 4 hr. The supernatant is collected for determination of TNFα and IL-8 concentrations by sandwich ELISA (Duo-set, R&D systems). […] The relative 50% effective concentration (REC50) is determined from the resultant concentration-response curve. The inhibition of IL-8 production is calculated at each concentration of test compound by comparison with vehicle control.

The subject of another data set is d-U937 cells. The data set can be described thus: Cell viability: MTT assay. The format is cell-based, human. The conditions noted are these: 1 μg/mL. As for the experimental part:
(l) The Effect of Test Compounds on Cell Viability: MTT Assay
Differentiated U937 cells are pre-incubated with each test compound (final concentration 1 μg/mL or 10 μg/mL in 200 μL media indicated below) under two protocols: the first for 4 hr in 5% FCS RPMI1640 media and the second in 10% FCS RPMI1640 media for 24 h. The supernatant is replaced with new media (200 μL) and MTT stock solution (10 μL, 5 mg/mL) is added to each well. After incubation for 1 hr the media are removed, DMSO (200 μL) is added to each well and the plates are shaken lightly for 1 hr prior to reading the absorbance at 550 nm. The percentage loss of cell viability is calculated for each well relative to vehicle (0.5% DMSO) treatment. Consequently an apparent increase in cell viability for drug treatment relative to vehicle is tabulated as a negative percentage.

Data set [2] deals with IL-8 release, d-U937 cells. Put plainly: LPS-induced IL-8 release in d-U937 cells. The format is cell-based. The note with it: Homo sapiens, dU937; Table 4c1; read-out: LPS Induced Release of Cytokine in d-U937 Cells, IL-8 IC50. On the procedure: as §4
U937 cells, a human monocytic cell line, are differentiated into macrophage-type cells by incubation with PMA (100 ng/mL) for 48 to 72 hr. Cells are pre-incubated with final concentrations of test compound for 2 hr and are then stimulated with LPS (0.1 μg/mL; from E. Coli: 0111:B4, Sigma) for 4 hr. […] The relative 50% effective concentration (REC50) is determined from the resultant concentration-response curve.

For the next data set, the target named is cSrc (Homo sapiens, UniProt P12931). Put plainly: c-Src enzyme inhibition (FRET). The class given is biochemical. The note with it: Table 4a1. As for the experimental part:
as §1, §2, §3

The subject of data set [3] is ICAM-1 expression, BEAS2B cells. The data set can be described thus: Poly I:C-induced ICAM-1 expression in BEAS2B cells. The class given is cell-based. The note with it: Homo sapiens, BEAS-2B; read-out: Poly IC induced ICAM1 in BEAS2B, IC50. As for the experimental part: (f) Poly I:C-Induced ICAM-1 Expression in BEAS2B Cells
Poly I:C is used in these studies as a simple, RNA virus mimic. Poly I:C-Oligofectamine mixture (1 μg/mL Poly I:C, ±2% Oligofectamine, 25 μL; Invivogen Ltd., San Diego, Calif., and Invitrogen, Carlsbad, Calif., respectively) is transfected into BEAS2B cells (human bronchial epithelial cells, ATCC). Cells are pre-incubated with final concentrations of test compounds for 2 hr and the level of ICAM1 expression on the cell surface is determined by cell-based ELISA. At a time point 18 hr after poly I:C transfection, cells are fixed with 4% formaldehyde in PBS (100 μL) and then endogenous peroxidase is quenched by the addition of washing buffer (100 μL, 0.05% Tween in PBS: PBS-Tween) containing 0.1% sodium azide and 1% hydrogen peroxide. Cells are washed with wash-buffer (3×200 μL). and after blocking the wells with 5% milk in PBS-Tween (100 μL) for 1 hr, the cells are incubated with anti-human ICAM-1 antibody (50 μL; Cell Signalling Technology, Danvers, Mass.) in 1% BSA PBS overnight at 4° C.
The cells are washed with PBS-Tween (3×200 μL) and incubated with the secondary antibody (100 μL; HRP-conjugated anti-rabbit IgG, Dako Ltd., Glostrup, Denmark). […] The ICAM-1 signal is detected by reading the absorbance at 450 nm against a reference wavelength of 655 nm using a spectrophotometer. The cells are then washed with PBS-Tween (3×200 μL) and total cell numbers in each well are determined by reading absorbance at 595 nm after Crystal Violet staining (50 μL of a 2% solution in PBS) and elution by 1% SDS solution (100 μL) in distilled water. The measured OD 450-655 readings are corrected for cell number by dividing with the OD595 reading in each well. The inhibition of ICAM-1 expression is calculated at each concentration of test compound by comparison with vehicle control.

Chain of GSK3α (P49840 whole entry): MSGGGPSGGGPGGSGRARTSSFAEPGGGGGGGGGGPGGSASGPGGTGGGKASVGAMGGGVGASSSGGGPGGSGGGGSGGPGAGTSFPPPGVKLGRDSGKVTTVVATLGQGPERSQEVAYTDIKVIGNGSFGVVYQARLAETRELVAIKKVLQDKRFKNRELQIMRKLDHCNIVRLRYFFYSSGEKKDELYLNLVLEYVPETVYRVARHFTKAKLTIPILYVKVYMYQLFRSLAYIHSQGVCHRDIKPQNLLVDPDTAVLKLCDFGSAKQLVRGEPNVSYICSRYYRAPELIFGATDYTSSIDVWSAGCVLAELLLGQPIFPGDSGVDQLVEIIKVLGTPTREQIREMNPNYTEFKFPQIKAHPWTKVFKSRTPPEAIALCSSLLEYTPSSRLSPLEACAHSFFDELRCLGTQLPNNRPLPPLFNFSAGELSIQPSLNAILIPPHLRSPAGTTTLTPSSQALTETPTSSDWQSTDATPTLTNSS
Chain of cSrc (P12931 whole entry): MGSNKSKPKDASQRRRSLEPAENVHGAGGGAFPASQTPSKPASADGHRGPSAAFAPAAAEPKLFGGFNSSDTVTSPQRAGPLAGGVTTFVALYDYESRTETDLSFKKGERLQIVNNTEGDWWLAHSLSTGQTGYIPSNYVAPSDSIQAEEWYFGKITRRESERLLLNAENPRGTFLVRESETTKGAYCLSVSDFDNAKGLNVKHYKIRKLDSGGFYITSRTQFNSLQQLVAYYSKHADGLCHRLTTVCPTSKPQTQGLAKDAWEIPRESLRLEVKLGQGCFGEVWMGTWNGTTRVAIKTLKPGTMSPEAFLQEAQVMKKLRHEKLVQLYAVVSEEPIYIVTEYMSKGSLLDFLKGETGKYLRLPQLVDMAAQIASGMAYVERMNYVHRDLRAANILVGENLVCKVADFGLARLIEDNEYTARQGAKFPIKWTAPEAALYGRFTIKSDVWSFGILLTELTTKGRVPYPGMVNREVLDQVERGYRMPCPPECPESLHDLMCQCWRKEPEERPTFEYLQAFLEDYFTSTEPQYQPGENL

As a reminder, the IC50 is the point on the concentration scale where inhibition reaches its midpoint. The compound `COc1ccc(-n2nc(C(C)C)cc2NC(=O)Nc2ccc(Oc3ccnc(Nc4cccc(C(=O)NCCN5CCOCC5)c4)n3)c3ccccc23)cc1` [Example 20, 3-((4-((4-(3-(3-isopropyl-1-(4-methoxyphenyl)-1H-pyrazol-5-yl)ureido)naphthalen-1-yl)oxy)pyrimidin-2-yl)amino)-N-(2-morpholinoethyl)benzamide] gave an IC50 at Syk of 15 nM. The IC50 on GSK3α was found to be 317 nM. The EC50 in data set [1] came to 1.4 nM. In addition, in the data set on d-U937 cells, the “Cell viability at time point in d-U937 cells, 4 h” value is “−ve (−ve and +ve indicate that the value is below and above respectively, the no significant effect threshold, defined as 30% inhibition at 1 μg/mL at the time point indicated)”; the “Cell viability at time point in d-U937 cells, 24 h” value (from here on “Cell viability at time point … 24 h”) was “−ve (−ve and +ve indicate that the value is below and above respectively, the no significant effect threshold, defined as 30% inhibition at 1 μg/mL at the time point indicated)”.

As for `COc1ccc(-n2nc(C(C)(C)C)cc2NC(=O)Nc2ccc(Oc3ccnc(Nc4cc(OC)cc(C(=O)NCCN5CCOCC5)c4)n3)c3ccccc23)cc1` [Example 54, 3-((4-((4-(3-(3-(tert-butyl)-1-(4-methoxyphenyl)-1H-pyrazol-5-yl)ureido)naphthalen-1-yl)oxy)pyrimidin-2-yl)amino)-5-methoxy-N-(2-morpholinoethyl)benzamide], the figures for the IC50 (on Syk; at GSK3α; in data set [2]) were 5 nM, 217 nM and 0.8 nM, respectively. Also, the EC50 in data set [1] was found to be 0.2 nM. For the same compound, the “Cell viability at time point in d-U937 cells, 4 h” value in the data set on d-U937 cells is “−ve (−ve and +ve indicate that the value is below and above respectively, the no significant effect threshold, defined as 30% inhibition at 1 μg/mL at the time point indicated)”. Also, in the data set on d-U937 cells, the “Cell viability at time point … 24 h” value is “−ve (−ve and +ve indicate that the value is below and above respectively, the no significant effect threshold, defined as 30% inhibition at 1 μg/mL at the time point indicated)”.

In the case of `COc1cc(Nc2nccc(Oc3ccc(NC(=O)Nc4cc(C(C)(C)C)nn4-c4ccc(OC)nc4)c4ccccc34)n2)cc(C(=O)NCCN2CCOCC2)c1` [Example 57, 3-((4-((4-(3-(3-(tert-butyl)-1-(6-methoxypyridin-3-yl)-1H-pyrazol-5-yl)ureido)naphthalen-1-yl)oxy)pyrimidin-2-yl)amino)-5-methoxy-N-(2-morpholinoethyl)benzamide], the concentration for half-maximal inhibition (IC50) at cSrc is less than 1 nM; at GSK3α, 283 nM; in data set [2], 1.5 nM; in data set [3] it was 1.9 nM. In data set [1], the EC50 stood at 0.6 nM. Moreover, the “Cell viability at time point in d-U937 cells, 4 h” value with d-U937 cells is “−ve (−ve and +ve indicate that the value is below and above respectively, the no significant effect threshold, defined as 30% inhibition at 1 μg/mL at the time point indicated)”. In addition, the “Cell viability at time point … 24 h” value with d-U937 cells is “−ve (−ve and +ve indicate that the value is below and above respectively, the no significant effect threshold, defined as 30% inhibition at 1 μg/mL at the time point indicated)”.

With `COc1cc(Nc2nccc(Oc3ccc(NC(=O)Nc4cc(C(C)C)nn4-c4ccc(C)cc4)c4ccccc34)n2)cc(C(=O)NCCO)c1` [Example 63, N-(2-hydroxyethyl)-3-((4-((4-(3-(3-isopropyl-1-(p-tolyl)-1H-pyrazol-5-yl)ureido)naphthalen-1-yl)oxy)pyrimidin-2-yl)amino)-5-methoxybenzamide], the IC50 is 37 nM on cSrc, 865 nM on Syk, 1.4 nM in data set [2] and 10.1 nM in data set [3]. Moreover, the EC50 in data set [1] worked out at 0.7 nM. Besides, the “Cell viability at time point in d-U937 cells, 4 h” value in the data set with d-U937 cells is “−ve (−ve and +ve indicate that the value is below and above respectively, the no significant effect threshold, defined as 30% inhibition at 1 μg/mL at the time point indicated)”. The “Cell viability at time point … 24 h” value in the data set on d-U937 cells was “−ve (−ve and +ve indicate that the value is below and above respectively, the no significant effect threshold, defined as 30% inhibition at 1 μg/mL at the time point indicated)”.

In the case of `C=C(C)c1cc(NC(=O)Nc2ccc(Oc3ccnc(Nc4cc(OC)cc(C(=O)NCCN5CCOCC5)c4)n3)c3ccccc23)n(-c2ccc(OC)cc2)n1` [Example 86, 3-Methoxy-5-((4-((4-(3-(1-(4-methoxyphenyl)-3-(prop-1-en-2-yl)-1H-pyrazol-5-yl)ureido)naphthalen-1-yl)oxy)pyrimidin-2-yl)amino)-N-(2-morpholinoethyl)-benzamide], the half-inhibitory concentration (IC50) is 8 nM against cSrc, 20 nM against Syk, greater than 13000 nM against GSK3α and 1.5 nM in data set [2]. For the same compound, the “Cell viability at time point in d-U937 cells, 4 h” value in the data set on d-U937 cells was “−ve (−ve and +ve indicate that the value is below and above respectively, the no significant effect threshold, defined as 30% inhibition at 1 μg/mL at the time point indicated)”. Further, the “Cell viability at time point … 24 h” value in the data set with d-U937 cells was “−ve (−ve and +ve indicate that the value is below and above respectively, the no significant effect threshold, defined as 30% inhibition at 1 μg/mL at the time point indicated)”.

For `COc1ccc(-n2nc(C(C)(C)C)cc2NC(=O)Nc2ccc(Oc3cc(Nc4cc(OC)cc(C(=O)NCCN5CCOCC5)c4)ncn3)c(C)c2C)cc1` [Example 91, 3-((6-(4-(3-(3-(tert-Butyl)-1-(4-methoxyphenyl)-1H-pyrazol-5-yl)ureido)-2,3-dimethylphenoxy)pyrimidin-4-yl)amino)-5-methoxy-N-(2-morpholinoethyl)benzamide], the half-maximal inhibitory concentration (IC50) at cSrc was less than 1.3 nM; against Syk, 131 nM; on GSK3α, 3520 nM.
